In patent US12398132B2, “Derivatives of 4-(imidazo[1,2-a]pyridin-3-yl)-n-(pyridinyl)pyrimidin-2-amine as therapeutic agents” (AUCENTRA THERAPEUTICS PTY LTD, priority 2019, dated 2025):

What was measured:
[1] = biological target: CDK4/D1 (Homo sapiens, UniProt P11802); experiment: ADP Glo kinase assay, CDK4/D1; format: biochemical; conditions: CDK4D1; compound at 1 μM (values marked *); read-out: residual enzymatic activity (%) at 1 μM*
Procedure: (§1) Inhibition of FLT3(WT), FLT3(ITD) and FLT3(D835Y) and CDKs were determined using ADP Glo Kinase assays (Promega Corporation, Madison, WI, USA). […] Similarly, kinase reaction for CDK4/D1 and CDK6/D3 was performed with reaction buffer (40 nM Tris base pH 7.5, 20 mM MgCl2, 0.4 mM DTT), 0.1 mg/ml BSA and RB-CTF substrate (retinoblastoma protein1 C-terminal fraction). For CDK9/CyclinT1, the kinase reaction was performed with the standard assay buffer and Kinase Dilution Buffer and RBER-IRStide substrate. Half-maximal inhibition (IC50) values were calculated using a 4-parameter logistic non-linear regression model with Graphpad prism (Version 6.0). Apparent inhibition constants (Ki) values were calculated from Km (ATP) and IC50 values for the respective kinases.

[2] = test system: MV-4-11; experiment: Proliferation assay (resazurin/MTT), MV-4-11; format: cell-based; conditions: Homo sapiens, MV4-11, read-out: 72 h Growth inhibition GI50, MV-4-11 cells
[3] = biological target: CDK7HMAT1 (Homo sapiens, UniProt P50613); conditions: 1 µM;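 also: kinase activity measured with an ADP-Glo luminescent kinase assay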
Sequence of CDK7HMAT1 (P50613 whole entry): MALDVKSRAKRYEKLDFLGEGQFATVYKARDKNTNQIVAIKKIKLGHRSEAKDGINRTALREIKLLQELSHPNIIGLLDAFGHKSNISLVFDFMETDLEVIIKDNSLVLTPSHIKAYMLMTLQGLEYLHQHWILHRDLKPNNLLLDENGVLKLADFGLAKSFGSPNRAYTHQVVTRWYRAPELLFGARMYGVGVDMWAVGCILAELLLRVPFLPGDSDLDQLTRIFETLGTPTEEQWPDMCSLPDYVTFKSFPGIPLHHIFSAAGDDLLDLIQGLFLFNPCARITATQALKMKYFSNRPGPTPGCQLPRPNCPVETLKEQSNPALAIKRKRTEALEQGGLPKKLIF
Sequence of CDK7HMAT1 (P51946 whole entry partner): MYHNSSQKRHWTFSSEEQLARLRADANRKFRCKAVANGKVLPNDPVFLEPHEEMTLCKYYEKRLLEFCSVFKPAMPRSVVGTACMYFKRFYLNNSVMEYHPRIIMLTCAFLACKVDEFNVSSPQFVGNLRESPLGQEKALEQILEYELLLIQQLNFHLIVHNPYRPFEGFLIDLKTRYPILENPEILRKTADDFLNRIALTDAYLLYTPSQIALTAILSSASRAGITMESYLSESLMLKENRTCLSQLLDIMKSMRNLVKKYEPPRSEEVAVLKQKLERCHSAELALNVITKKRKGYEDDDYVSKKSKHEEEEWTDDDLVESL
Sequence of CDK7HMAT1 (P51948 whole entry partner): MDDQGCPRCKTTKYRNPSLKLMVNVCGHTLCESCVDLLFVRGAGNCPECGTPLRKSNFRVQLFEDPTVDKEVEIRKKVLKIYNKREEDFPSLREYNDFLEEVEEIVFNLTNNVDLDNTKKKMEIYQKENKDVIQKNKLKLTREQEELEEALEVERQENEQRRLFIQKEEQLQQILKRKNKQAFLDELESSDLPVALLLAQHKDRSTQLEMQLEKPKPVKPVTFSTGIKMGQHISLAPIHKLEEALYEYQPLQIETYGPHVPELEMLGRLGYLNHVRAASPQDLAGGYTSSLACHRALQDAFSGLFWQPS

[4] = biological target: CDK1B (Homo sapiens, UniProt P06493); conditions: 1 µM
Sequence of CDK1B (P06493 whole entry): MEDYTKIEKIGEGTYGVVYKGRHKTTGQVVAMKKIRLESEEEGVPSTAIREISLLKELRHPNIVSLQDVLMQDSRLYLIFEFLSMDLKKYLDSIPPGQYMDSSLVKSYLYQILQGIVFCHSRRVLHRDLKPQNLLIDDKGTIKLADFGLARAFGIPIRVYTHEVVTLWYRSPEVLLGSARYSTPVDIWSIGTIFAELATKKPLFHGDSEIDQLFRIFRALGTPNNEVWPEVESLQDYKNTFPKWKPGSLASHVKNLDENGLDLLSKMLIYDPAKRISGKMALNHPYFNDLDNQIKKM
Sequence of CDK1B (P14635 whole entry partner): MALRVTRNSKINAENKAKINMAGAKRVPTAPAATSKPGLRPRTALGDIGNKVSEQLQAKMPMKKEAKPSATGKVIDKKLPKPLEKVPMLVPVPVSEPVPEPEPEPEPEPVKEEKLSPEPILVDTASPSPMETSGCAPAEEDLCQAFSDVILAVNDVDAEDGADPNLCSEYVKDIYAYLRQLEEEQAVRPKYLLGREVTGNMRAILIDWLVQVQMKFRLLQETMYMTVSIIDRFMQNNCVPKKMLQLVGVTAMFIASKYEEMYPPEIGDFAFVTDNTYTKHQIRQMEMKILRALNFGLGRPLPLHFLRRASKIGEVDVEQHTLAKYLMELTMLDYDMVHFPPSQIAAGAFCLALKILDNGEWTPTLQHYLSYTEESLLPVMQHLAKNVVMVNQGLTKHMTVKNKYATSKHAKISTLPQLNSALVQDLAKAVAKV

[5] = biological target: CDK6/D3 (Homo sapiens, UniProt Q00534); experiment: ADP Glo kinase assay, CDK6/D3; format: biochemical; conditions: CDK6D3; compound at 1 μM (values marked *); read-out: residual enzymatic activity (%) at 1 μM*
Sequence of CDK6/D3 (Q00534 whole entry, species assumed): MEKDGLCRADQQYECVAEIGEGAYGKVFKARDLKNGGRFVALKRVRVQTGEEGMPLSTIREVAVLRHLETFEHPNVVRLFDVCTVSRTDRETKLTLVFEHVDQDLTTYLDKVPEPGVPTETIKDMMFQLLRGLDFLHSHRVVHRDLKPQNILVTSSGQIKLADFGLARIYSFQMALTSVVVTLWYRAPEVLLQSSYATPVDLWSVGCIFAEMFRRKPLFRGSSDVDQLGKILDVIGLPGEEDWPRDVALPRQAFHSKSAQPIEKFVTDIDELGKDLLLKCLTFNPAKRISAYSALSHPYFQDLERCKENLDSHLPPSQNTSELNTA
Sequence of CDK6/D3 (P30281 whole entry partner, species assumed): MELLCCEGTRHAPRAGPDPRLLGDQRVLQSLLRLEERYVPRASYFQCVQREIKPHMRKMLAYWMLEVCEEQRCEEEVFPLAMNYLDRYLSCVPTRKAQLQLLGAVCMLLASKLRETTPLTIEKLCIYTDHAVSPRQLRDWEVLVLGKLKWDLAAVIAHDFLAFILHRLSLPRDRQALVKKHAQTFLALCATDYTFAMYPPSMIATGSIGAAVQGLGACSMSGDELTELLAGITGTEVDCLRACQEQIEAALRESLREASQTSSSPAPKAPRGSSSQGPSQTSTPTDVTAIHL
Procedure: as §1

[6] = test system: U937; experiment: Proliferation assay (resazurin/MTT), U937; format: cell-based; conditions: Homo sapiens, U-937, read-out: 72 h Growth inhibition GI50, U937 cells
[7] = biological target: CDK2E1 (Homo sapiens, UniProt P24941); conditions: 1 µM
[8] = biological target: CDK9/CyclinT1 (Homo sapiens, UniProt P50750); experiment: ADP Glo kinase assay, CDK9/CyclinT1; format: biochemical; conditions: CDK9T1; for remaining activity at 1 µM: compound at 1 μM (values marked *), read-out: residual enzymatic activity (%) at 1 μM*
Sequence of CDK9/CyclinT1 (P50750 whole entry, species assumed): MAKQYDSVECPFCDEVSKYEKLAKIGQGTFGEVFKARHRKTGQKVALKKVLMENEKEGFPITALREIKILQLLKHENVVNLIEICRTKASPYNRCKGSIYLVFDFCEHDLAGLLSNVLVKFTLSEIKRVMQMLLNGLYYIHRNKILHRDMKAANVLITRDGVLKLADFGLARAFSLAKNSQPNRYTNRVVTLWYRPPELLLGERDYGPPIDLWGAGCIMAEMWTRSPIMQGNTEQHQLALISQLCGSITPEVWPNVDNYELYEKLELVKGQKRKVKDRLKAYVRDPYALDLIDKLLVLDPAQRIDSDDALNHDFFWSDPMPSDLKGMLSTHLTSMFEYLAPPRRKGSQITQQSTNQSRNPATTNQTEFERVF
Sequence of CDK9/CyclinT1 (O60563 whole entry partner, species assumed): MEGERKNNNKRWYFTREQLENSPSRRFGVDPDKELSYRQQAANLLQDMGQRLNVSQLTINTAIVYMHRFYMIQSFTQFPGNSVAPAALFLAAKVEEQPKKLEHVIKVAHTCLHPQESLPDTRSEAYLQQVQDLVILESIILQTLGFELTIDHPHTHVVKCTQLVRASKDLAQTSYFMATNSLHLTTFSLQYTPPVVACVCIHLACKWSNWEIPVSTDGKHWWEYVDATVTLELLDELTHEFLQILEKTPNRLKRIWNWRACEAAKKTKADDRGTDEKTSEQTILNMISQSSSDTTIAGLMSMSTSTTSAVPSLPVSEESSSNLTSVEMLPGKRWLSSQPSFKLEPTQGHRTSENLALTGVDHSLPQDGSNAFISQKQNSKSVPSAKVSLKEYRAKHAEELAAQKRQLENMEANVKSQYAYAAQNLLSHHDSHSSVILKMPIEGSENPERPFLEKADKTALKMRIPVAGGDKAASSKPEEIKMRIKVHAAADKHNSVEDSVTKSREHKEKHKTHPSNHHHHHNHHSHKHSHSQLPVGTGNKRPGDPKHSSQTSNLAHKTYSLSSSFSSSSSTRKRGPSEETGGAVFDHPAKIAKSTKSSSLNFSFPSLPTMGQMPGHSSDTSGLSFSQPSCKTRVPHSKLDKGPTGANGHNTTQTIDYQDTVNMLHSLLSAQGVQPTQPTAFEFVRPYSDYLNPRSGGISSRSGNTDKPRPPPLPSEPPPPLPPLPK
Procedure: as §1

[9] = biological target: T1, FLT3(ITD) (Homo sapiens, UniProt P36888); experiment: ADP Glo kinase assay, FLT3(ITD); format: biochemical; conditions: apparent Ki calculated from Km (ATP) and IC50, read-out: FLT3 inhibition Ki
T1 sequence (P36888 1-993): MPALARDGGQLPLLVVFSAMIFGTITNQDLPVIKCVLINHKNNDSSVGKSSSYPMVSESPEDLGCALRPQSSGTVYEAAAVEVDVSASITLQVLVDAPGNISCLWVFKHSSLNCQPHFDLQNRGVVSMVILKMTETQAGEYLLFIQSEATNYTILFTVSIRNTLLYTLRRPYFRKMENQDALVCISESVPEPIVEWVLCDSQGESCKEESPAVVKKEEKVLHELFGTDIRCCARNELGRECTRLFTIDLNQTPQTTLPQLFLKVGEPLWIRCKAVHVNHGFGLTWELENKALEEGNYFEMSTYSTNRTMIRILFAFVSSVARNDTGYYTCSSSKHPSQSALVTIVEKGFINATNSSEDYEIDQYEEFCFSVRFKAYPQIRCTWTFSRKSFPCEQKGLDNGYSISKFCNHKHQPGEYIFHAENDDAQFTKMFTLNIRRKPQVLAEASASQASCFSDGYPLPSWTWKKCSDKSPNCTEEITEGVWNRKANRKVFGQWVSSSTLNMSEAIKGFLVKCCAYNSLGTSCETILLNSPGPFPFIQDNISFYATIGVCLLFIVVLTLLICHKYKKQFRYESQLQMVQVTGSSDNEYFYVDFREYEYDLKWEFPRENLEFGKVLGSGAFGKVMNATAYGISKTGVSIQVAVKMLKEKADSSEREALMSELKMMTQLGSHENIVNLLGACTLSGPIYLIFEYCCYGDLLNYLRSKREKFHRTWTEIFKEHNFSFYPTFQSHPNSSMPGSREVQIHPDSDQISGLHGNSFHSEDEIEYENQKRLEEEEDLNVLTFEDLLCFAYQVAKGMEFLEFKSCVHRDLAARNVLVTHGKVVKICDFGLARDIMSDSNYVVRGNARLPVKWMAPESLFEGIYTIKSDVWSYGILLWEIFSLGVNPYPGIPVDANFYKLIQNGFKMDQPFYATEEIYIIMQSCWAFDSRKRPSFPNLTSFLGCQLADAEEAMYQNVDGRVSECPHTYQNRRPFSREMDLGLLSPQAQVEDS
Procedure: Inhibition of FLT3(WT), FLT3(ITD) and FLT3(D835Y) and CDKs were determined using ADP Glo Kinase assays (Promega Corporation, Madison, WI, USA). […] The kinase reactions are run for an optimised time period (FLT3-WT: 120 min, FLT3-ITD: 80 min, FLT3-D835Y: 100 min) at room temperature and then the reaction was stopped by adding 5 μL of ADP Glo reagent. […] Positive and negative controls were performed in 0.5% DMSO in the presence and absence of each FLT3 kinase, respectively. […] Half-maximal inhibition (IC50) values were calculated using a 4-parameter logistic non-linear regression model with Graphpad prism (Version 6.0). Apparent inhibition constants (Ki) values were calculated from Km (ATP) and IC50 values for the respective kinases.

Sequence of CDK4/D1 (P11802 whole entry, species assumed): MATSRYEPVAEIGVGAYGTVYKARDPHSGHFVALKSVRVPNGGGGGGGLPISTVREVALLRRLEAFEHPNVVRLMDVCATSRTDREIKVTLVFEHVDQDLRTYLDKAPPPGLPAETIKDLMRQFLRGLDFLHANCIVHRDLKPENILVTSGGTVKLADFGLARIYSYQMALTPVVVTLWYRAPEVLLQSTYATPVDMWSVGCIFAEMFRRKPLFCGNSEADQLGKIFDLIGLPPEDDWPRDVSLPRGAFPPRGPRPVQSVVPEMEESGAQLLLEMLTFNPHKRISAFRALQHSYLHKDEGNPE
Sequence of CDK4/D1 (P24385 whole entry partner, species assumed): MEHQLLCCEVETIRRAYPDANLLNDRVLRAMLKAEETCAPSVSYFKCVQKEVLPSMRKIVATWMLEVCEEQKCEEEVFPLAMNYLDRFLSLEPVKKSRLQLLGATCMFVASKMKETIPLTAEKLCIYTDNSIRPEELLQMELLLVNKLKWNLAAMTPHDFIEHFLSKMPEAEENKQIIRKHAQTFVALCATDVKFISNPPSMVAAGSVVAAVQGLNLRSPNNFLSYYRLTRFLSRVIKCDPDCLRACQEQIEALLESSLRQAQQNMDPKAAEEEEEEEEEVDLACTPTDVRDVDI

remaining activity at 1 µM [1] [%]	GI50 [2] [nM]	activity [3] [%]	activity [4] [%]	remaining activity at 1 µM [5] [%]	GI50 [6] [nM]	activity [7] [%]	remaining activity at 1 µM [8] [%]	Ki ([8]; apparent Ki calculated from Km (ATP) and IC50, read-out: CDK inhibition Ki) [nM]	Ki [9] [nM]	Structure (SMILES)
77	6	91	98	80	1490	86	61	–	–	CC(=O)N1CCN(c2ccc(Nc3nccc(-c4cnc5ccc(Nc6ccccc6)cn45)n3)nc2)CC1 [Cmpd 28, 1-(4-(6-((4-(6-(Phenylamino)imidazo[1,2-a]pyridin-3-yl)pyrimidin-2-yl)amino)pyridin-3-yl)piperazin-1-yl)ethan-1-one]
59	43	82	100	59	393	47	36	–	–	CC(=O)N1CCN(c2ccc(Nc3ncc(F)c(-c4cnc5ccccn45)n3)nc2)CC1 [Cmpd 29, 1-(4-(6-((5-Fluoro-4-(imidazo[1,2-a]pyridin-3-yl)pyrimidin-2-yl)amino)pyridin-3-yl)piperazin-1-yl)ethan-1-one]
55	72	77	96	58	4040	51	33	–	–	CC(=O)N1CCN(c2ccc(Nc3ncc(F)c(-c4cnc5ccc(F)cn45)n3)nc2)CC1 [Cmpd 30, 1-(4-(6-((5-Fluoro-4-(6-fluoroimidazo[1,2-a]pyridin-3-yl)pyrimidin-2-yl)amino)pyridin-3-yl)piperazin-1-yl)ethan-1-one]
67	24	84	93	70	821	65	82	–	–	CC(=O)N1CCN(c2ccc(Nc3ncc(F)c(-c4cnc5ccc(C(F)(F)F)cn45)n3)nc2)CC1 [Cmpd 32, 1-(4-(6-((5-Fluoro-4-(6-(trifluoromethyl)imidazo[1,2-a]pyridin-3-yl)pyrimidin-2-yl)amino)pyridin-3-yl)piperazin-1-yl)ethan-1-one]
60	3	88	98	79	1860	84	72	–	–	CC(=O)N1CCN(c2ccc(Nc3nccc(-c4cnc5ccc(-c6coc7ccccc67)cn45)n3)nc2)CC1 [Cmpd 33, 1-(4-(6-((4-(6-(Benzofuran-3-yl)imidazo[1,2-a]pyridin-3-yl)pyrimidin-2-yl)amino)pyridin-3-yl)piperazin-1-yl)ethan-1-one]
55	66	80	99	77	2490	75	100	–	–	CC(=O)N1CCN(c2ccc(Nc3nccc(-c4cnc5ccc(-c6cn(S(=O)(=O)c7ccccc7)c7ccccc67)cn45)n3)nc2)CC1 [Cmpd 34, 1-(4-(6-((4-(6-(1-(Phenylsulfonyl)-1H-indol-3-yl)imidazo[1,2-a]pyridin-3-yl)pyrimidin-2-yl)amino)pyridin-3-yl)piperazin-1-yl)ethan-1-one]
77	7	81	81	76	> 10000	100	91	–	–	CC(=O)N1CCN(c2ccc(Nc3nccc(-c4cnc5ccc(-c6csc7ccccc67)cn45)n3)nc2)CC1 [Cmpd 35, 1-(4-(6-((4-(6-(Benzo[b]thiophen-3-yl)imidazo[1,2-a]pyridin-3-yl)pyrimidin-2-yl)amino)pyridin-3-yl)piperazin-1-yl)ethan-1-one]
58	12	96	96	76	1360	89	99	–	–	CC(=O)N1CCN(c2ccc(Nc3nccc(-c4cnc5ccc(-c6cccc7[nH]ccc67)cn45)n3)nc2)CC1 [Cmpd 36, 1-(4-(6-((4-(6-(1H-Indol-4-yl)imidazo[1,2-a]pyridin-3-yl)pyrimidin-2-yl)amino)pyridin-3-yl)piperazin-1-yl)ethan-1-one]
78	10	103	96	78	2420	91	39	–	–	CC(=O)N1CCN(c2ccc(Nc3nccc(-c4cnc5ccc(-c6cc7ccccc7[nH]6)cn45)n3)nc2)CC1 [Cmpd 37, 1-(4-(6-((4-(6-(1H-Indol-2-yl)imidazo[1,2-a]pyridin-3-yl)pyrimidin-2-yl)amino)pyridin-3-yl)piperazin-1-yl)ethan-1-one]
70	44	102	99	70	2910	82	85	–	–	CC(=O)N1CCN(c2ccc(Nc3nccc(-c4cnc5ccc(-c6cn(S(=O)(=O)c7ccccc7)c7ncccc67)cn45)n3)nc2)CC1 [Cmpd 38, 1-(4-(6-((4-(6-(1-(Phenylsulfonyl)-1H-pyrrolo[2,3-b]pyridin-3-yl)imidazo[1,2-a]pyridin-3-yl)pyrimidin-2-yl)amino)pyridin-3-yl)piperazin-1-yl)ethan-1-one]
55	1	104	97	78	1340	93	82	–	–	CC(=O)N1CCN(c2ccc(Nc3nccc(-c4cnc5ccc(-c6cn(C)c7ccccc67)cn45)n3)nc2)CC1 [Cmpd 40, 1-(4-(6-((4-(6-(1-Methyl-1H-indol-3-yl)imidazo[1,2-a]pyridin-3-yl)pyrimidin-2-yl)amino)pyridin-3-yl)piperazin-1-yl)ethan-1-one]
54	1	79	98	89	1280	81	42	–	–	CC(=O)N1CCN(c2ccc(Nc3nccc(-c4cnc5ccc(-c6c[nH]c7ccccc67)cn45)n3)nc2)CC1 [Cmpd 41, 1-(4-(6-((4-(6-(1H-Indol-3-yl)imidazo[1,2-a]pyridin-3-yl)pyrimidin-2-yl)amino)pyridin-3-yl)piperazin-1-yl)ethan-1-one]
52	5	80	95	64	1560	46	–	607	–	CC(=O)N1CCN(c2ccc(Nc3nccc(-c4cnc5ccc(-c6c[nH]c7ncccc67)cn45)n3)nc2)CC1 [Cmpd 42, 1-(4-(6-((4-(6-(1H-pyrrolo[2,3-b]pyridin-3-yl)imidazo[1,2-a]pyridin-3-yl)pyrimidin-2-yl)amino)pyridin-3-yl)piperazin-1-yl)ethan-1-one]
–	49	–	–	–	471	–	–	–	44	Cc1ccc(Nc2nccc(-c3cnc4ccccn34)n2)nc1 [Cmpd 55, 4-(Imidazo[1,2-a]pyridin-3-yl)-N-(5-methylpyridin-2-yl)pyrimidin-2-amine]
–	22	–	–	–	339	–	–	–	16	CCC(=O)N1CCN(c2ccc(Nc3nccc(-c4cnc5ccccn45)n3)nc2)CC1 [Cmpd 56, 1-(4-(6-((4-(Imidazo[1,2-a]pyridin-3-yl)pyrimidin-2-yl)amino)pyridin-3-yl)piperazin-1-yl)propan-1-one]
